# Source: PubChem BioAssay AID328 (DTP/NCI, 2004)
# Toxic doses and inconclusive results are not listed.
# Test system: BDF1 mice, P388 leukemia ip, median survival T/C
# Assay: NCI In Vivo Anticancer Drug Screen. Data for tumor model P388 Leukemia (intraperitoneal) in B6D2F1 (BDF1) mice
# Settings: endpoint: median survival time, higher = longer survival
# In short: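 Antitumour effect was judged in vivo: survival in drug-treated mice, normalised to that of vehicle-dosed controls, gives the reported T/C.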
# [1] = dose: 100.0 mg/kg/injection, schedule: Q04DX003 (ip), vehicle: saline sonified
# [2] = dose: 200.0 mg/kg/injection, schedule: Q04DX003 (ip), vehicle: saline sonified
# [3] = dose: 400.0 mg/kg/injection, schedule: Q01DX009 (ip), vehicle: saline with Tween-80
smiles,measurement,setting,value
O=[N+]([O-])c1ccc2nccc(Cl)c2c1,T/C,"dose: 25.0 mg/kg/injection, schedule: Q04DX003 (ip), vehicle: Klucel (hydroxypropylcellulose) (HPC)",100 % of control
same,T/C,"dose: 50.0 mg/kg/injection, schedule: Q04DX003 (ip), vehicle: Klucel (hydroxypropylcellulose) (HPC)",95 % of control
COc1cc([N+](=O)[O-])c(C)cc1NC(=O)c1ccc(OC)c(OC)c1,T/C,"dose: 0.78 mg/kg/injection, schedule: Q01DX009 (ip), vehicle: saline",100 % of control
same,T/C,"dose: 1.56 mg/kg/injection, schedule: Q01DX009 (ip), vehicle: saline",115 % of control
same,T/C,"dose: 3.12 mg/kg/injection, schedule: Q01DX009 (ip), vehicle: saline",88 % of control
same,T/C,"dose: 6.25 mg/kg/injection, schedule: Q01DX009 (ip), vehicle: saline",86 % of control
C1CN1c1nc(N2CC2)nc(N2CC2)n1,T/C,"dose: 0.05 mg/kg/injection, schedule: Q01DX009 (ip), vehicle: saline",175 % of control
same,T/C,"dose: 0.1 mg/kg/injection, schedule: Q01DX009 (ip), vehicle: saline",115 % of control
same,T/C,"dose: 0.13 mg/kg/injection, schedule: Q01DX010 (ip), vehicle: saline",109 % of control
same,T/C,"dose: 0.25 mg/kg/injection, schedule: Q01DX010 (ip), vehicle: saline",150 % of control
same,T/C,"dose: 0.25 mg/kg/injection, schedule: Q01DX010 (ip), vehicle: water",190 % of control
same,T/C,"dose: 0.4 mg/kg/injection, schedule: Q01DX009 (ip), vehicle: saline",159 % of control
same,T/C,"dose: 0.5 mg/kg/injection, schedule: Q01DX009 (ip), vehicle: saline",200 % of control
same,T/C,"dose: 0.5 mg/kg/injection, schedule: Q01DX010 (ip), vehicle: saline",272 % of control
same,T/C,"dose: 0.5 mg/kg/injection, schedule: Q01DX010 (ip), vehicle: water",268 % of control
same,T/C,"dose: 0.75 mg/kg/injection, schedule: Q01DX010 (ip), vehicle: water",268 % of control
same,T/C,"dose: 0.8 mg/kg/injection, schedule: Q01DX009 (ip), vehicle: saline",86 % of control
CN1CCN(CCOC(=O)N2c3ccccc3Sc3ccccc32)CC1,T/C,"dose: 12.5 mg/kg/injection, schedule: Q01DX009 (ip), vehicle: Klucel (hydroxypropylcellulose) (HPC)",100 % of control
same,T/C,"dose: 25.0 mg/kg/injection, schedule: Q01DX009 (ip), vehicle: Klucel (hydroxypropylcellulose) (HPC)",105 % of control
same,T/C,"dose: 50.0 mg/kg/injection, schedule: Q01DX009 (ip), vehicle: Klucel (hydroxypropylcellulose) (HPC)",100 % of control
CC1(C)N=C(N)N=C(N)N1NC(=O)c1cccc(Cl)c1,T/C,"dose: 50.0 mg/kg/injection, schedule: Q04DX003 (ip), vehicle: saline sonified",109 % of control
same,T/C,[1],109 % of control
same,T/C,[2],109 % of control
CCCC(C(CC)CO)C(CC)C(O)C(CC)CO (centres undefined),T/C,"dose: 50.0 mg/kg/injection, schedule: Q01DX005 (ip), vehicle: saline with Tween-80",100 % of control
same,T/C,"dose: 100.0 mg/kg/injection, schedule: Q01DX005 (ip), vehicle: saline with Tween-80",94 % of control
same,T/C,"dose: 200.0 mg/kg/injection, schedule: Q01DX005 (ip), vehicle: saline with Tween-80",99 % of control
COC(=O)C1CCCCC1C(=O)OC (centres undefined),T/C,"dose: 100.0 mg/kg/injection, schedule: Q01DX009 (ip), vehicle: saline",90 % of control
same,T/C,"dose: 200.0 mg/kg/injection, schedule: Q01DX009 (ip), vehicle: saline",95 % of control
same,T/C,"dose: 264.0 mg/kg/injection, schedule: Q01DX009 (ip), vehicle: saline with Tween-80",109 % of control
same,T/C,[3],109 % of control
C1=NCCCN1,T/C,"dose: 25.0 mg/kg/injection, schedule: Q04DX003 (ip), vehicle: saline",100 % of control
same,T/C,"dose: 50.0 mg/kg/injection, schedule: Q04DX003 (ip), vehicle: saline",100 % of control
same,T/C,"dose: 100.0 mg/kg/injection, schedule: Q04DX003 (ip), vehicle: saline",100 % of control
CCC(=O)/C=C/C1=C(C)CCCC1(C)C,T/C,"dose: 50.0 mg/kg/injection, schedule: Q04DX003 (ip), vehicle: saline with Tween-80",104 % of control
same,T/C,"dose: 100.0 mg/kg/injection, schedule: Q04DX003 (ip), vehicle: saline with Tween-80",104 % of control
same,T/C,"dose: 200.0 mg/kg/injection, schedule: Q04DX003 (ip), vehicle: saline with Tween-80",95 % of control
CCOc1ccc(OCC)c2c1C(=O)c1ccccc1C2=O,T/C,"dose: 100.0 mg/kg/injection, schedule: Q04DX003 (ip), vehicle: Klucel (hydroxypropylcellulose) (HPC)",100 % of control
same,T/C,"dose: 200.0 mg/kg/injection, schedule: Q04DX003 (ip), vehicle: Klucel (hydroxypropylcellulose) (HPC)",105 % of control
same,T/C,"dose: 400.0 mg/kg/injection, schedule: Q04DX003 (ip), vehicle: Klucel (hydroxypropylcellulose) (HPC)",111 % of control
Nc1ncc2[nH]c(C(F)(F)F)nc2n1,T/C,"dose: 50.0 mg/kg/injection, schedule: Q01DX009 (ip), vehicle: saline with Tween-80",102 % of control
same,T/C,"dose: 100.0 mg/kg/injection, schedule: Q01DX009 (ip), vehicle: saline with Tween-80",102 % of control
same,T/C,"dose: 200.0 mg/kg/injection, schedule: Q01DX009 (ip), vehicle: saline with Tween-80",105 % of control
same,T/C,[3],117 % of control
CCN1C(=O)CSC1=S,T/C,"dose: 62.5 mg/kg/injection, schedule: Q01DX010 (ip), vehicle: saline",109 % of control
same,T/C,"dose: 125.0 mg/kg/injection, schedule: Q01DX010 (ip), vehicle: saline",109 % of control
same,T/C,"dose: 250.0 mg/kg/injection, schedule: Q01DX010 (ip), vehicle: saline",90 % of control
O=C(O)c1ccccc1CBr,T/C,[1],104 % of control
same,T/C,[2],104 % of control
same,T/C,"dose: 400.0 mg/kg/injection, schedule: Q04DX003 (ip), vehicle: saline sonified",100 % of control
